Source: patent EP1212309B1, “CASPASE INHIBITOR” (LG Chem Investment, Ltd., priority 1999, dated 2001)

Experiments:
[1] = system: WI38 cells; assay: Protection from IFNγ and anti-Fas antibody-induced apoptosis (XTT); format: cell-based, human; conditions: 100% when Fas antibody was not treated; for viability ratio: WI38 cells
Experimental: WI38 cells (human embryonal lung fibroblast) were grown in a medium containing DMEM-10% FBS within 10cm diameter dishes until reaching at confluency. The cells were seeded into a 24-well plate at day 1 and incubated overnight while the volume of medium was maintained to 400µℓ. […] At day 3, each 100 µℓ of test compound was added to the cells after diluting the 10mM stock compound in DMSO to final concentrations of 50, 10, 2, and 0.4 µ M, respectively. The cells were incubated for 2 hrs in order for allowing the compound to enter into the cells and then treated with 40ng/well of anti-Fas antibody(apoptosis was induced 2 hrs after antibody was treated and the incubation was continued overnight). The control was not treated with Fas antibody. […] After coloring, 100-200µℓ of the supernatant was transferred to a 96-well plate and the absorbance at 490 nm was read with ELISA plate reader. For the blank, XTT solution was added to the well containing the medium only. Plotting was determined by comparing with the control group (100% when Fas antibody was not treated).

[2] = system: Recombinant human caspase; assay: Inhibition of caspase activity in cell free system (chromogenic pNA substrates); format: biochemical; conditions: 100 µM compound, caspase-1, -2, -3, -4, -6, -7, -8 and -9, 200 µM chromogenic substrate, 37°C
Experimental: The pharmacological efficacy of the compound according to the present invention was evaluated by the following experiments. Con A was purchased from Boehringer Mannheim GmbH (Mannheim, Germany). Peptide-based substrates of caspases (Ac-YVAD-pNA for caspase-1, Ac-VDVAD for caspase-2, Ac-DEVD-pNA for caspase-3, 7, 8, and 9, Ac-LEVD-pNA for caspase-4, and Ac-VEID-pNA for caspase-6) and peptide-based caspase inhibitors (Ac-DEVD-fmk, z-VAD-CHO) were purchased from Alexis Co. (San Diego, CA). Ac-DEVD-CHO and z-DEVD-cmk were purchased from Bachem; Anti Fas antibody was purchased from Oncor (Cat#A8050); WI38 cell was available from ATCC; IFN-gamma was purchased from LG Pharmaceuticals (Korea). All cell culture-media and supplements were purchased from Gibco BRL (Tsuen Wan, Hong Kong) unless mentioned otherwise. […]
Caspase activity was tested by measuring proteolytic cleavage of peptide-based chromogenic substrate by each enzyme. […] Aliquots of the enzyme (2 µℓ containing catalytic activity of 0.2 absorbance at 405 nm/h) were mixed with 150 µℓ of 200 µM chromogenic substrate in the presence or absence of 100 µM compound 33 in 96-well plates. […] The absorbance of enzymatically released pNA was measured discontinuously at 405 nm in a microplate reader for I hr. The caspase activity was calculated from initial velocity (mean± SE)(n=4, in which n represents the number of repeated experiment).

[3] = system: PARP cleavage; assay: Con A-treated mouse liver: Western blotting of PARP cleavage; format: in vivo; conditions: liver lysate of Con A-treated mice, various doses, Western blot
Experimental: In this experiment, the cleavage of PARP was identified by the appearance on Western blot analysis of an 85 kDa-cleavage product in hepatic cell lysate obtained from mice treated with Con A and various doses of the compound of formula (I).
Freshly harvested livers treated with Con A or PBS together with various doses of compound 33 were rinsed in cold PBS and homogenized into three volumes per weight of cold PBS containing 1% Nonidet P-40, 0.1 % SDS, 1 mM PMSF, and protease inhibitor cocktail tablet Complete™ (Boehnger Mannheim, used according to manufacturer's instruction). The homogenates were incubated on ice for 30 min. Samples were then centrifuged at 16,000 x g for 30 min at 4°C. Supernatants were transferred to fresh tubes and centrifuged for additional 30 min. Harvested lysates were precleared by incubating with protein G-sepharose (Pharmacia, Uppsala, Sweden) at 4 °C for overnight, gently shaking. Supernatants were harvested by centrifugation at 1000 x g for 30 sec. at 4 °C and separated on 7 % SDS-polyacrylamide gel and transferred to nitrocellulose membrane. Blots were blocked for 1 hr at room temperature in PBS containing 5% skimmed milk and 0.1% Tween 20 under gentle shaking. Membranes were then incubated overnight with 1:1000 diluted monoclonal anti-PARP antibody (Pharmingen) under gentle shaking. […]

[4] = system: hepatocytes in ConA-treated mouse liver; assay: Con A-treated mouse liver: histologic examination and detection of apoptosis (H&E, TUNEL); format: in vivo; conditions: ConA-treated mice, compound 33 4, 20, 100mg/kg
Experimental: The present inventors estimated the prevalence of apoptotic cells in the mouse liver to certify the apoptosis-blocking effect of the compound of the present invention specifically in hepatocytes. Mice were treated ConA in the presence or absence of various dosages of compound 33 [A and G: ConA and vehicle treatment, B and H: ConA and compound 33 4mg/kg treatment, C and I: ConA and compound 33 20mg/kg treatment, D and J: ConA and compound 33 100mg/kg treatment] to prepare frozen liver sections. Also, mice were treated with PBS and vehicle (E and K), or PBS and compound 33 100mg/kg (F and L) to prepare frozen liver sections. Freshly excised mouse liver was immediately immersed in 25 % sucrose solution at 4 °C for overnight, then frozen in liquid nitrogen, and cryosectioned into 4 µm.
For histological examination, liver sections were fixed in 1% buffered paraformaldehyde and stained with hematoxilin & eosin (Fig. 6A to F). To detect apoptotic cells in liver, frozen liver was stained using an ApopTag in situ apoptosis peroxidase detection kit (terminal deoxynucleotidyl transferase-mediated dUTP nick end labeling: TUNEL assay) (Oncor, Gaithersburg, MD) and DAKO liquid DAB (DAKO, Carpinteria, CA)(Fig. 6G to L). Staining was conducted according to manufacturer's instruction. After completion of staining, the samples were observed under an optical microscope. […]

[5] = system: Con A-induced acute hapatitis mice; assay: Con A-induced acute hepatitis in mice: plasma aminotransferase activity; format: in vivo, Balb/c mice
Experimental: Female 6-week-old Balb/c mice (Charles River Laboratory, Osaka, Japan) were kept at 22 °C and 55% relative humidity in a 12-h day/night rhythm with free access to food and water. Con A was dissolved in pyrogen-free saline to a concentration of 2.5 mg/ml and was injected via the tail vein in an amount of 20mg/kg based on Con A. The animals were i.p. injected twice with compound 33 dissolved into a vehicle which consists of olive oil and 10% DMSO, or a vehicle alone, at 1 hr before and 4h after Con A injection. Animals were sacrificed by cervical dislocation at 24 hrs after Con A injection to obtain liver and blood samples.
Blood samples obtained at step 1 were collected at 24h after Con A injection. Plasma AST and ALT activity were measured using Autokit (Youngdong Pharmaceutical Co., Seoul, Korea) following manufacturer's instruction.

CC(C)[C@H](NC(=O)c1cccc2ccccc12)C1=NOC(Cc2ccccc2)(C(=O)N[C@@H](CC(=O)O)C(=O)COC(=O)c2c(Cl)cccc2Cl)C1 (stereo partly drawn) [Compound 33, (3S)-3-{3-[2-methyl-(1S)-1-(1-naphthalenecarbonylamino)-propyl]-5-phenylmethyl-4,5-dihydro-isoxazole-5-carbonylamino}-4-keto-5-(2,6-dichlorobenzoyloxy)-pentanoic acid]
viability at 0.4 µM ([1]; Homo sapiens, WI-38, WI38 cells, Conc. 0.4 µM, read-out: viability ratio): 15.5% | viability at 2 µM ([1]; Homo sapiens, WI-38, WI38 cells, Conc. 2 µM, read-out: viability ratio): 64.4% | viability at 10 µM ([1]; Homo sapiens, WI-38, WI38 cells, Conc. 10 µM, read-out: viability ratio): 92.7% | viability at 50 µM ([1]; Homo sapiens, WI-38, WI38 cells, Conc. 50 µM, read-out: viability ratio): 100% | viability ratio ([1]; Conc. 50 µM, 50 µM): 100% | viability ratio ([1]; Conc. 50 µM, listed as Comp 33, 50 µM): 100.21% | inhibition of recombinant caspase activity [2]: almost completely inhibited all tested caspase activity, only except for caspase 2 | PARP cleavage (85 kDa-cleavage product) caused by Con A-induced apoptotic death of hepatic cells [3]: gradually reduced as dose of compound 33 is increased | apoptotic lesions in liver [4]: reduced dose-dependently | cellular histology of liver [4]: gradually recovered with increasing dose | AST and ALT activity, difference to Con A/vehicle group ([5]; 4mg/kg compound 33, second experiment (AST p=0.2972, ALT p=0.1378)): did not reached at statistically significant level | AST and ALT activities compared with ConA/vehicle group ([5]; 20 mg/kg compound 33 (AST p=0.0174, ALT p=0.0011)): definitely reduced | AST activity by the compound itself (liver toxicity) ([5]; compound alone without Con A, first experiment, not statistically significant (p=0.1033)): slightly increased AST activity by itself | serum AST and ALT activity elevated by ConA ([5]; i.p. twice, 1 hr before and 4h after Con A 20mg/kg i.v., blood at 24h, across doses): suppressed the elevated enzyme activities in a dose-dependent manner
